Like-named read-outs stand apart in the source and are kept apart here.
Assays:
[1] = molecular target: SHP1 (Homo sapiens (Human), UniProt P29350); assay: pNPP inhibition assay against SHP1; type: biochemical
[2] = molecular target: mPTPB (Mycobacterium tuberculosis (strain ATCC 25618 / H37Rv), UniProt I6WXK4); type: biochemical
[3] = molecular target: PTP1B (Homo sapiens (Human), UniProt P18031); assay: pNPP inhibition assay against PTP1B; type: biochemical
[4] = molecular target: SHP2 (Homo sapiens (Human), UniProt Q06124); assay: pNPP inhibition assay against SHP2; type: biochemical
[5] = molecular target: MKP5 (Homo sapiens (Human), UniProt Q9Y6W6); assay: pNPP inhibition assay against MKP5; type: biochemical; conditions: pNPP at Km of the PTP
[6] = molecular target: TC-PTP (Homo sapiens (Human), UniProt P17706); assay: pNPP inhibition assay against TC-PTP; type: biochemical; conditions: pNPP at Km of the PTP
[7] = molecular target: PTPγ (Homo sapiens (Human), UniProt P23470); assay: pNPP inhibition assay against PTPγ; type: biochemical; conditions: pNPP at Km of the PTP
[8] = molecular target: LMPTP-1 (Homo sapiens (Human), UniProt P24666); type: biochemical
[9] = molecular target: LYP (Homo sapiens (Human), UniProt Q9Y2R2); assay: pNPP inhibition assay against LYP; type: biochemical; conditions: pNPP at Km of the PTP
[10] = molecular target: PTP-PEST (Homo sapiens (Human), UniProt Q05209); assay: pNPP inhibition assay against PTP-PEST; type: biochemical; conditions: pNPP at Km of the PTP
[11] = molecular target: mPTPA (Mycobacterium tuberculosis (strain ATCC 25618 / H37Rv), UniProt P9WIA1); assay: biochemical
[12] = Mouse liver microsomal stability; type: in vitro ADME; conditions: for Microsome Stability, % remaining: Mouse, after 60 min at 37° C.
Source text: A sufficient oral dosage must survive first-pass clearance through the liver before reaching its biological target. The majority of drugs/xenobiotics undergo phase I metabolism, mediated by the cytochrome P450 (CYP450) family of heme-thiolate proteins predominantly in the liver. Although mouse liver microsomal (MLM) stability studies are not a perfect substitute for in vivo metabolic clearance studies, but they serve as an initial […] model system that can correlate well with human liver microsomal (HLM) stability and in vivo activity in mice. To this end, compounds 4h, 4k, 4t, 4u, and 4v were allowed to react with mouse liver microsomes and the fraction of remaining parent compound over time was determined. […] Incorporation of fluorine into drug candidates generally improves their potency, bioavailability, and metabolic stability. In addition, fluorinated molecules are in general, nontoxic and mimic the corresponding nonfluorinated analogs in their stereoelectronic properties, so the drug's affinity for the receptor either remains the same or, in some cases increases. […] So, the loss of compounds tested here is attributed only to oxidative Phase I metabolism. The high microsomal stability of these compounds could be exploited pharmacologically.
Mouse (CD-1) pooled liver microsomes purchased from Fisher Scientific, IL, USA (0.5 mg/mL, Corning Gentest 3P, cat#452702), and the assay procedures were followed as previously reported. A solution of mouse liver microsomes and 1 mM of co-factor NADPH in 1 ml of phosphate buffer saline (pH=7.4) was prewarmed to 37° C. in an Eppendorf tube. Then 10 μL of a test solution (10 mM DMSO stock) was added to initiate the reaction. Verapamil-HCl was used as a positive control. […] The incubation mixture was kept at 37° C., and 50 μL aliquots were taken at times of 0, 5, 10, 15, 30 or 60 min. Each of the aliquot was quenched using 200 μL of ice-cold acetonitrile. The mixtures were vigorously vortexed and centrifuged to remove the precipitated protein and the supernatants were analyzed by an Agilent Technologies 6470 series, triple quadrupole LC/MS spectrometer to quantitate the remaining parent compound. The percent of the parent compound remaining was calculated from the formula: % parent compound remaining=(concentration at 60 min/concentration at 0 min)*100

[13] = Solubility observed for analogs (qualitative)
[14] = pNPP assay, pH 7.0, 3.0 mM pNPP

Chain of PTP1B (P18031 3-277): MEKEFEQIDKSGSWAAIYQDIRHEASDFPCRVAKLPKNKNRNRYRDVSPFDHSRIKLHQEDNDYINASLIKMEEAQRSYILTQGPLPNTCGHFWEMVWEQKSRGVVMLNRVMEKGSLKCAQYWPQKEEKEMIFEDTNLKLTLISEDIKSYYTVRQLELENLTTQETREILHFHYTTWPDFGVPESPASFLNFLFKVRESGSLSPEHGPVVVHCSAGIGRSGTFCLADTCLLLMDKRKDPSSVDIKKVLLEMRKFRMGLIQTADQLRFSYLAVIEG
Chain of mPTPB (I6WXK4 whole entry, looked up): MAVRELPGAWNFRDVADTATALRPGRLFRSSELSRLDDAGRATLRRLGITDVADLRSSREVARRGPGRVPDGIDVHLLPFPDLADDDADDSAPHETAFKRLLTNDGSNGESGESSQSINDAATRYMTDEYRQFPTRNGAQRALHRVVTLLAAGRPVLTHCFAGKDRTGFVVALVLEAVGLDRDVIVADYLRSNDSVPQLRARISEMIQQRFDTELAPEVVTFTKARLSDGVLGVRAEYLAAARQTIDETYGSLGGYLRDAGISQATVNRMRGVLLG
Chain of SHP2 (Q06124 247-517): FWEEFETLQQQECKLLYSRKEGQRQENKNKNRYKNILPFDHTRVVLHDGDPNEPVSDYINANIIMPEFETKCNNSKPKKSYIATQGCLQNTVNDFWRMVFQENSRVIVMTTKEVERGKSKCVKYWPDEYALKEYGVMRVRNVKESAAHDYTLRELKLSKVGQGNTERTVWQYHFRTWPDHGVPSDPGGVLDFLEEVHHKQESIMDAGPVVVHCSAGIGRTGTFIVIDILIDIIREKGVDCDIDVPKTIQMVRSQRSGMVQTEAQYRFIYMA
Chain of SHP1 (P29350 244-515): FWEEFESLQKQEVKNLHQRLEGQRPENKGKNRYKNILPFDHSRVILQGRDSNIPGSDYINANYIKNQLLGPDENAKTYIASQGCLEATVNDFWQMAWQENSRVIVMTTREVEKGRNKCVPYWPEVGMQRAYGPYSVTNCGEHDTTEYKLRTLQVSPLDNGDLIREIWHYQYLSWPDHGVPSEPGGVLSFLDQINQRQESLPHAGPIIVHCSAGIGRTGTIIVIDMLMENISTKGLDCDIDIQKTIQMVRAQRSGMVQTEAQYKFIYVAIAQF
Chain of LYP (Q9Y2R2 24-289, species assumed): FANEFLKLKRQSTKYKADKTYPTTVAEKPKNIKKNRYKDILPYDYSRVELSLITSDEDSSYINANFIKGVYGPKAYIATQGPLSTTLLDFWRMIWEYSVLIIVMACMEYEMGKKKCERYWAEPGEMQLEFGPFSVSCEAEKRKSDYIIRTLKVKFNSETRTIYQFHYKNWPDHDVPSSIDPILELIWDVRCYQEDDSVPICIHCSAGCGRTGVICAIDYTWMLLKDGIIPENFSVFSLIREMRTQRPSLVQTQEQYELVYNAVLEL
Chain of PTP-PEST (Q05209 28-293, species assumed): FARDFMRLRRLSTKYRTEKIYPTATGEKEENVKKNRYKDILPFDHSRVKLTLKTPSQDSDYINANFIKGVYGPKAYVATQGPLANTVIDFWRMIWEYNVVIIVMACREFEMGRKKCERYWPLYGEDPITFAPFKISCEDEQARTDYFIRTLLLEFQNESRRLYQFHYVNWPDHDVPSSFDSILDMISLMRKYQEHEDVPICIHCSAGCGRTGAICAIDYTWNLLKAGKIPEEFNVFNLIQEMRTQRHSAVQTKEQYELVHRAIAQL
Chain of MKP5 (Q9Y6W6 321-464, species assumed): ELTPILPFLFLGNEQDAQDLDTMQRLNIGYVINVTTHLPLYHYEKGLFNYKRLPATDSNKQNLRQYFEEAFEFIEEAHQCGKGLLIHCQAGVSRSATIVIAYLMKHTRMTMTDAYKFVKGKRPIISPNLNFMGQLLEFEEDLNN
Chain of TC-PTP (P17706 5-275): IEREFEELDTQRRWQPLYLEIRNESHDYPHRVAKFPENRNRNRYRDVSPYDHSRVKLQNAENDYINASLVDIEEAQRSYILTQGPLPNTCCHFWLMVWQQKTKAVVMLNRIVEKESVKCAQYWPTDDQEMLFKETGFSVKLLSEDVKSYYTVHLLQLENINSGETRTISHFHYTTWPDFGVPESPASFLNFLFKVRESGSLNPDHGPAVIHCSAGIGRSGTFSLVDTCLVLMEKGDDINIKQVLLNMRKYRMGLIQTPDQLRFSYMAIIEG
Chain of PTPγ (P23470 763-1445): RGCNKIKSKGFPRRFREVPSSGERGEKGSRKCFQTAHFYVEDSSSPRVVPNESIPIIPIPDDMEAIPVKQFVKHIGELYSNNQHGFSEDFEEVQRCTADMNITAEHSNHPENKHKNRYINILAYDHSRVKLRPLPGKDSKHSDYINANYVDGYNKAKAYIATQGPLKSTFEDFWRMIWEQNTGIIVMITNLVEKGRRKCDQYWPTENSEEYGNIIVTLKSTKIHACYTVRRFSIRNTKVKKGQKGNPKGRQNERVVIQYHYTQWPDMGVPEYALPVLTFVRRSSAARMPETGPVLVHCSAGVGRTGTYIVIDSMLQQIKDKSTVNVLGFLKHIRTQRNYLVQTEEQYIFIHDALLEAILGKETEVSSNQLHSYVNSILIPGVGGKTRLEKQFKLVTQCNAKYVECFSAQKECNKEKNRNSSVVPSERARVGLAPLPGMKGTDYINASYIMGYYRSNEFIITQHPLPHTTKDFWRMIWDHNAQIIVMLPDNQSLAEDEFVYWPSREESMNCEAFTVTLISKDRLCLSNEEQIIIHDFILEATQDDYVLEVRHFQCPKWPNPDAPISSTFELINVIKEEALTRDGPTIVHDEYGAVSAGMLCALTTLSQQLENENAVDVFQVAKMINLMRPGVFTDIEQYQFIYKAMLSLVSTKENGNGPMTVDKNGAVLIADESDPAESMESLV
Chain of LMPTP-1 (P24666 whole entry, looked up): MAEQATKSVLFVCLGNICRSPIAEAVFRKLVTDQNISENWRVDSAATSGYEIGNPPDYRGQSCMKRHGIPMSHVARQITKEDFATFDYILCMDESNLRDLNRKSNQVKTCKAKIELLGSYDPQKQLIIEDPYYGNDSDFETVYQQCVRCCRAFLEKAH

| Compound | IC50 ([1]; pNPP at Km of the PTP) | IC50 [2] | IC50 ([3]; pNPP at Km of the PTP) | IC50 ([4]; pNPP at Km of the PTP) | IC50 [2, 14] | further results |
| --- | --- | --- | --- | --- | --- | --- |
| O=C(O)C(=O)Nc1ccc(C#Cc2ccccc2)cc1 [Compound 4, 2-oxo-2-((4-(phenylethynyl)phenyl)amino)acetic Acid] | > 100 µM | 0.257 ± 0.008 µM | > 100 µM | > 100 µM |  | fold more potency compared to the meta derivative 5 [2]: 2 fold |
| COC(=O)c1ccc(C#Cc2ccc(NC(=O)C(=O)O)cc2)cc1 [Compound 4a, 2-((4-((4-(methoxycarbonyl)phenyl)ethynyl)phenyl)amino)-2-oxoacetic Acid] | > 100 µM |  | > 100 µM | 52.6 ± 6.4 µM | 0.023 ± 0.004 µM |  |
| COC(=O)c1cc(C#Cc2ccc(NC(=O)C(=O)O)cc2)ccc1O [Compound 4b, 2-((4-((4-hydroxy-3-(methoxycarbonyl)phenyl)ethynyl)phenyl)amino)-2-oxoacetic Acid] | > 50 µM |  | > 50 µM | 27.3 ± 3.3 µM | 0.025 ± 0.003 µM |  |
| COC(=O)c1cc(C#Cc2ccc(NC(=O)C(=O)O)cc2)c(N(C)C)cc1O [Compound 4d, 2-((4-((2-(dimethylamino)-4-hydroxy-5-(methoxycarbonyl)phenyl)ethynyl)phenyl)amino)-2-oxoacetic Acid] | > 50 µM |  | > 50 µM | > 50 µM | 0.03 ± 0.009 µM |  |
| CN(C)c1cc(O)c(C(=O)O)cc1C#Cc1ccc(NC(=O)C(=O)O)cc1 [Compound 4f, 5-((4-(carboxyformamido)phenyl)ethynyl)-4-(dimethylamino)-2-hydroxybenzoic Acid] | 59.3 ± 6 µM |  | > 100 µM | 78.5 ± 4.2 µM | 0.09 ± 0.008 µM |  |
| CN(C)c1cc(O)c(C(=O)O)cc1C#Cc1cccc(NC(=O)C(=O)O)c1 [Compound 4g, 5-((3-(carboxyformamido)phenyl)ethynyl)-4-(dimethylamino)-2-hydroxybenzoic Acid] |  | 0.16 µM |  |  |  | IC50 [5]: > 50 µM; IC50 [1]: 38.5 ± 4.2 µM; IC50 [6]: > 50 µM; IC50 [7]: > 50 µM; IC50 [3]: 45.1 ± 4.5 µM; IC50 [8]: 34.5 µM; IC50 [4]: 47.5 ± 3.5 µM; IC50 [9]: > 50 µM; IC50 [10]: > 50 µM; IC50 [11]: > 50 µM |
| CC(C)(C)c1ccc(C#Cc2ccc(NC(=O)C(=O)O)cc2)cc1 [Compound 4h, 2-((4-((4-(tert-butyl)phenyl)ethynyl)phenyl)amino)-2-oxoacetic Acid] | > 50 µM |  | > 50 µM | > 50 µM | 0.026 ± 0.005 µM | Microsome Stability, % remaining [12]: 27 ± 2.4%; microsomal stability ranking ([12]; mouse liver microsomes, last time point): least stable |
| O=C(O)C(=O)Nc1ccc(C#Cc2cc(C(F)(F)F)cc(C(F)(F)F)c2)cc1 [Compound 4p, 2-((4-((3,5-bis(trifluoromethyl)phenyl)ethynyl)phenyl)amino)-2-oxoacetic Acid] | > 50 µM | 0.06 ± 0.009 µM | > 50 µM | > 50 µM |  | difference in IC50 values with and without Triton X-100 and with preincubation [2]: no significant difference |
| O=C(O)C(=O)Nc1ccc(C#Cc2ccc3ccccc3c2)cc1 [Compound 4q, 2-((4-(naphthalen-2-ylethynyl)phenyl)amino)-2-oxoacetic Acid] | > 50 µM |  | > 50 µM | > 50 µM |  | solubility (in words) [13]: poor solubility |
| O=C(O)C(=O)Nc1ccc(C#Cc2ccc(OCc3ccccc3)cc2)cc1 [Compound 4r, 2-((4-((4-(benzyloxy)phenyl)ethynyl)phenyl)amino)-2-oxoacetic Acid] | 16.8 ± 3.3 µM |  | 38.9 ± 5 µM | 15.3 ± 2.1 µM |  | solubility (in words) [13]: poor solubility |
| O=C(O)C(=O)Nc1ccc(C#Cc2ccc(C(F)(F)F)cc2Cl)cc1 [Compound 4t, 2-((4-((2-chloro-4-(trifluoromethyl)phenyl)ethynyl)phenyl)amino)-2-oxoacetic Acid] | > 30 µM |  | > 30 µM | > 30 µM |  | IC50 [5]: > 30 µM; IC50 [6]: > 30 µM; IC50 [7]: > 30 µM; IC50 [9]: > 30 µM; IC50 [10]: > 30 µM; Microsome Stability, % remaining [12]: 56 ± 1.5%; IC50 [11]: > 30 µM |
| O=C(O)C(=O)Nc1ccc(C#Cc2ccc(C(F)(F)F)cc2Br)cc1 [Compound 4u, 2-((4-((2-bromo-4-(trifluoromethyl)phenyl)ethynyl)phenyl)amino)-2-oxoacetic Acid] | 33.8 ± 6.8 µM |  | 16.4 ± 2.9 µM | 15.2 ± 3.4 µM |  | Microsome Stability, % remaining [12]: 60 ± 3.8% |
| O=C(O)C(=O)Nc1ccc(C#Cc2ccc(C(F)(F)F)cc2F)cc1 [Compound 4v, 2-((4-((2-fluoro-4-(trifluoromethyl)phenyl)ethynyl)phenyl)amino)-2-oxoacetic Acid] | > 30 µM |  | > 30 µM | > 30 µM |  | Microsome Stability, % remaining [12]: 72 ± 2.8% |
| O=C(O)C(=O)Nc1ccc(C#Cc2ccc(C(F)(F)F)cc2C(F)(F)F)cc1 [Compound 4x, 2-((4-((2,4-bis(trifluoromethyl)phenyl)ethynyl)phenyl)amino)-2-oxoacetic Acid] | > 30 µM |  | > 30 µM | > 30 µM |  |  |
| O=C(O)C(=O)Nc1cnc2ccccc2c1 [Compound 8, 2-oxo-2-(quinolin-3-ylamino)acetic Acid] |  |  | > 100 µM | > 100 µM | > 10 µM |  |
| O=C(O)C(=O)Nc1ccc(/C=C\c2ccccc2)cc1 [Compound 9, (Z)-2-oxo-2-((4-styrylphenyl)amino)acetic Acid] |  | 0.77 ± 0.015 µM | > 30 µM | > 30 µM |  | fold less potency compared to corresponding alkyne analogs 4 and 4k [2]: 3 fold |
| O=C(O)C(=O)Nc1ccc(/C=C\c2ccc(C(F)(F)F)cc2)cc1 [Compound 10, (Z)-2-oxo-2-((4-(4-(trifluoromethyl)styryl)phenyl)amino)acetic Acid] |  | 0.684 ± 0.025 µM | > 30 µM | > 30 µM |  | fold less potency compared to corresponding alkyne analogs 4 and 4k [2]: 45 fold |
| O=C(O)C(=O)Nc1ccc(CCc2ccccc2)cc1 [Compound 11, 2-oxo-2-((4-phenethylphenyl)amino)acetic Acid] |  | 1.27 ± 0.2 µM | > 30 µM | > 30 µM |  | fold less potency compared to corresponding alkyne analogs 4 and 4k [2]: 5 fold |
| O=C(O)C(=O)Nc1ccc(CCc2ccc(C(F)(F)F)cc2)cc1 [Compound 12, 2-oxo-2-((4-(4-(trifluoromethyl)phenethyl)phenyl)amino)acetic Acid] |  | 0.197 ± 0.013 µM | > 30 µM | > 30 µM |  | fold less potency compared to corresponding alkyne analogs 4 and 4k [2]: 13 fold |
